From patent US7884118B2, “1-cycloalkyl-5-iodotetrazoles” (LANXESS Deutschland GmbH, priority 2005, dated 2011)

Tests used:
Chaetomium globosum = assay: Minimum inhibitory concentration (MIC) against fungi, malt extract agar; assay type: cell-based; details: 336 h, 2 weeks at 28° C., 60 to 70% relative atmospheric humidity, read-out: Minimum inhibitory concentrations Chaetomium globosum
Procedure: (§1) In each case, the active compounds according to the invention, in concentrations of from 0.1 mg/l to 5000 mg/l, were added to an agar which had been prepared using malt extracts. The MIC was determined after 2 weeks of storage at 28° C. and 60 to 70% relative atmospheric humidity. The MIC is the lowest concentration of active compound at which there is no colonization by the microbial species used.

Aspergillus niger = assay: as above; assay type: cell-based; details: 336 h, 2 weeks at 28° C., 60 to 70% relative atmospheric humidity, read-out: Minimum inhibitory concentrations Aspergillus niger
Procedure: as §1

Penicillium brevicaule = assay: as above; assay type: cell-based; details: 336 h, 2 weeks at 28° C., 60 to 70% relative atmospheric humidity, read-out: Minimum inhibitory concentrations Penicillium brevicaule
Procedure: as §1

`Ic1nnnn1C1CCCC1` [Example 1, 1-Cyclopentyl-5-iodotetrazole] showed a melting point of 119 °C, an MIC (Chaetomium globosum) of less than 20 µg/mL and an MIC (Aspergillus niger) of less than 20 µg/mL. For the same molecule, the MIC (Penicillium brevicaule) was less than 20 µg/mL.
